Measurements reported in US11351275B2, “Metal complexes with bisphophonate or pyrophosphate useful as imaging agents” (Duke University, priority 2015, dated 2022).

What was measured:
[1] = In vivo MR imaging (biodistribution) after i.v. administration of Mn complexes; parameters: species or system mouse
Experimental: FIG. 4A. In vivo MRI in control mouse after i.v. administration of MnNTA.
FIG. 4B. MRI after i.v. administration of Mn:ETID (50 μL of 40 mM solution).
In vivo behavior was tested of two relatively strong (log K1>7) ligands for Mn(II) chelation, nitrilotriacetic acid (NTA), closely related to EDTA, and […] (3,4-DBA).
This in vivo behavior was also what is observed for the FDA-approved agent Teslascan. In the past, development of paramagnetic Mn complexes for MRI has been challenged by the inherent coordination lability of Mn(II) (e.g., Irving Williams series), resulting in the propensity of Mn(II) to be trans-metallated by other endogenous metals such as zinc in vivo. The only FDA-approved approved Mn(II) PM complex for MRI was Teslascan, which has now been discontinued. […] Contrast enhancement was therefore based on free Mn and confined to the liver.
Enhancement of the bowel is also noted but more variable, believed to represent elimination of the coordination complex from the gallbladder into the small intestine. […]
Finally, it is worth noting that free Mn is believed to be toxic neurologically if allowed to accumulate to high concentrations in certain neuronal populations. […] Since Mn accumulation in tissues is readily visualized with MRI, however, selective delivery of Mn-containing agents is easily monitored. […]

4T1 tumor = experiment: Dynamic contrast enhancement of 4T1 tumor after i.v. administration; format: in vivo; settings: pilot data, versus paramagnetic coordination complex alone
Experimental: FIG. 5. Dynamic contrast enhancement of 4T1 tumor after i.v. admin of 1-hydroxybisphosphonate:Mn complex linked to HSP90 inhibitor as in Scheme 1C, 25 mg/kg. Graph on left depicts relative change in T1 enhancement in tumors after labeled drug (n=5) and after Mn:ETID complex alone (n=6).
Several synthetic strategies were used for labeling small molecule drugs either directly or via polyethyleneglycol (PEG) linkers. Two lead complexes, the first with a medronate analogue (Scheme 1B) via the amine-terminated PEG linker, and the second an etidronate analogue coupled through the COOH-terminated PEG linker (Scheme 1C), have now been synthesized, characterized and studied preliminarily in vivo.

[2] = FDA-approved Mn(II) agent, prior experience; cited from earlier work
[3] = EDTA reference value in competition experiments; cited from earlier work
[4] = identical field strength (7T), commercial Gd(III) agent; cited from earlier work

Q: With `O=C(O)CN(CC(=O)O)CC(=O)O` [NTA, nitrilotriacetic acid] as the compound, how does the cardiac enhancement ([1]; after i.v. administration, indicates free Mn released into blood pool) read?
A: cardiac enhancement was also seen

Q: What about the “biodistribution on in vivo MR imaging” value ([1]; mouse, in vivo, iv) of the same compound?
A: consistent with release of free Mn and hepatocellular uptake

Q: With `Cc1nn(-c2ccc(C(N)=O)c(NCCCOCCOCCOCCOCCOCCCNC(=O)CC(P(=O)(O)O)P(=O)(O)O)c2)c2c1C(=O)CC(C)(C)C2` [Scheme 1B] as the compound, how does the “enhancement in 4T1 tumors” value (4T1 tumor) read?
A: progressive accumulation of enhancement in 4T1 tumors that is greater than what is seen for the paramagnetic coordination complex alone

Q: For `Cc1ncc(COP(=O)([O-])[O-])c(CN(CCN(CC(=O)[O-])Cc2c(COP(=O)([O-])[O-])cnc(C)c2[O-])CC(=O)[O-])c1[O-].[H+].[H+].[H+].[Mn+2].[Na+].[Na+].[Na+]` [Teslascan], which “in vivo distribution behaviour” value [2] is on record?
A: immediately distributed to the liver, releasing free Mn

Q: With `O=C(O)CN(CCN(CC(=O)O)CC(=O)O)CC(=O)O` [EDTA] as the compound, how does the “log K1” value [3] read?
A: 26

Q: With `Cc1nn(-c2ccc(C(N)=O)c(NCCCOCCOCCOCCOCCOCCCC(=O)NCCCC(O)(P(=O)(O)O)P(=O)(O)O)c2)c2c1C(=O)CC(C)(C)C2` [Scheme 1C] as the compound, how does the “enhancement in 4T1 tumors” value (4T1 tumor) read?
A: progressive accumulation of enhancement in 4T1 tumors that is greater than what is seen for the paramagnetic coordination complex alone

Q: With `O=C([O-])CN1CCN(CC(=O)[O-])CCN([C@H](CO)[C@H](O)CO)CCN(CC(=O)[O-])CC1.[Gd+3]` (racemic) [gadobutrol] as the compound, how does the “r1 (relaxivity stated as equivalent)” value [4] read?
A: 5.2 mM⁻¹ s⁻¹
